6 compounds from patent US11572399B2, “Long-acting GIP peptide analogues” (University of Copenhagen, priority 2017, dated 2023) can be followed below.

Several values for one entry are separate records, joined by “and”; a condition that tells them apart may be missing. Equal entries are not always repeated. Where two headings read alike, the source gives them in different places. Peptide text beside a SMILES is read from it. * marks the point of attachment. C16 diacid = O=C(O)CCCCCCCCCCCCCCC(=O)*

The target of data set [1] is T1, human GIP receptor (Homo sapiens, UniProt P48546).
T1 construct: host or cells: COS-7, transient transfection (calcium phosphate), cDNA in pCMV-Script
T1 sequence (P48546 22-466): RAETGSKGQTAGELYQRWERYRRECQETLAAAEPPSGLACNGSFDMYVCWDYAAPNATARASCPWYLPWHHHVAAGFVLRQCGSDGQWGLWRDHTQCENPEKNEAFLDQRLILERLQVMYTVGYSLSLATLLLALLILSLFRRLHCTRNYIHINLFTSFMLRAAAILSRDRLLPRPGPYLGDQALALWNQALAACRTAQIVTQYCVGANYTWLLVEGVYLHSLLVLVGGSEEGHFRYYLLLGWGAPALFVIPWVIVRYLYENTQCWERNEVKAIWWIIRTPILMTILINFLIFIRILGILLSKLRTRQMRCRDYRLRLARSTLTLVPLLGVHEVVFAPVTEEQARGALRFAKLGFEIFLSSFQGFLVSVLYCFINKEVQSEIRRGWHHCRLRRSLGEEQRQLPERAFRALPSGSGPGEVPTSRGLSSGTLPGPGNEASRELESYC
Kind of data set: cAMP accumulation assay, agonism (ligand alone). Particulars: Table 1; for Emax: COS-7, intrinsic cAMP activity. It is filed as cell-based. For orientation: Cyclic AMP is a second messenger, typically raised through Gs and lowered through Gi signalling.

In data set [2] the target is T1, human GIP receptor. The data set can be described thus: cAMP accumulation assay, antagonism of a GIP-mediated cAMP response (50-80% of max). The format is cell-based. The following applies: for Fold change of IC50 versus GIP(5-30)NH2: fold change of IC50 from GIP(5-30)NH2; for IC50: transiently transfected COS-7 cells, Table 1 and text, read-out: cAMP antagonism nM (IC50, antagonistic potency). As to the method:
The day after, the cells were washed twice with Hepes buffered saline (HBS) buffer and incubated with HBS and 1 mM 3-isobutyl-1-methylxanthine (IBMX) for 30 min at 37° C. […] The HitHunter™ cAMP XS assay (DiscoveRx) was carried out according to the manufacturer's instructions.

In data set [3] the target is T1, human GIP receptor. Kind of data set: 125I-human GIP competition binding assay, in the presence and absence of 2% HSA.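 On all read-outs here: nonspecific binding taken as radioligand bound to untransfected cells, IC50 obtained from nonlinear regression fits.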 The following applies: for Fold change HSA (2%)/Casein (0.1%): IC50 (plus HSA)/IC50 (minus HSA); for Binding (+/−HSA) Fold: fold change +HSA/−HSA; for Fold change in affinity, IC50 (plus HSA)/IC50 (minus HSA): presence vs absence of 2% HSA, proxy for albumin binding.
Procedure: Transient transfection of the COS-7 cells for cAMP accumulation and competition binding was performed using the calcium phosphate precipitation method with the addition of chloroquine^46-47.
Transient transfected COS-7 cells expressing the human GIP receptor were seeded in clear 96-well plates the day after transfection using a number of cells/well that obtained 5-10% specific binding of the added radioactive ligand. The following day, cells were assayed by competition binding for 3 h at 4° C. using 15-40 pM 125 I-human GIP as well as increasing concentrations unlabeled ligand in 50 mM Hepes buffer (pH 7.2) in the presence and absence of 2% HSA. After incubation, the cells were washed twice in ice-cold binding buffer (+/−2% HSA) and lysed using 200 mM NaOH with 1% SDS for 30 min. Nonspecific binding was determined as the binding of radioactive ligand to untransfected cells.
IC50, EC50, and Ki values were determined by nonlinear regression. […] Ki values were based on the formula for one class of binding sites in homologous competition binding studies and the Cheng Prussoffs formula, respectively (DeBlasi et al., 1989). To determine the HSA binding potential, the fold change in affinity (as determined by IC50) was calculated as IC50 (plus HSA)/IC50 (minus HSA).

[4] abbreviates: binding in 0.1% casein (absence of HSA), log value, read-out: logIC50 0.1% casein (converted).
Setting [5] is: heterologous competition binding, transiently transfected COS-7 cells expressing the human GIP receptor, read-out: Binding.
[6] abbreviates: COS-7 cells, read-out: cAMP agonism nM (EC50).

With `CC[C@H](C)[C@H](NC(=O)[C@H](CO)NC(=O)[C@H](CCCCNC(=O)CCCCCCCCCCCCCCC(=O)O)NC(=O)[C@H](CC(=O)O)NC(=O)[C@H](CO)NC(=O)[C@@H](NC(=O)[C@H](Cc1ccccc1)NC(=O)[C@@H](N)[C@@H](C)O)[C@@H](C)CC)C(=O)N[C@@H](C)C(=O)N[C@@H](CCSC)C(=O)N[C@@H](CC(=O)O)C(=O)N[C@@H](CCCCN)C(=O)N[C@H](C(=O)N[C@@H](Cc1c[nH]cn1)C(=O)N[C@@H](CCC(N)=O)C(=O)N[C@@H](CCC(N)=O)C(=O)N[C@@H](CC(=O)O)C(=O)N[C@@H](Cc1ccccc1)C(=O)N[C@H](C(=O)N[C@@H](CC(N)=O)C(=O)N[C@@H](Cc1c[nH]c2ccccc12)C(=O)N[C@@H](CC(C)C)C(=O)N[C@@H](CC(C)C)C(=O)N[C@@H](C)C(=O)N[C@@H](CCC(N)=O)C(=O)N[C@@H](CCCCN)C(N)=O)C(C)C)[C@@H](C)CC` [AT172, [hGIP(5-30)NH2[Y10K]-C16diacid/10]] (H-TFISDK(C16 diacid)SIAMDKIHQQDFVNWLLAQK-NH2; N-terminus assumed), the Emax (as a rule, the maximal effect, on the per cent scale that the assay sets) in data set [1] (COS-7 cells) turned out to be 0%. Also, in data set [2], the “Fold change of IC50 versus GIP(5-30)NH2” value turned out to be 14.1. Moreover, the “Fold change HSA (2%)/Casein (0.1%)” value in data set [3] is reported as 3.8. Moreover, the IC50 is 251 nM in data set [3] (setting [4]); 955 nM in data set [3] (binding in presence of 2% HSA, read-out: logIC50 2% HSA (converted)); 252 nM in data set [3] (setting [5]). Moreover, the “Binding (+/−HSA) Fold” value in data set [3] is recorded as 2.8.
`CC[C@H](C)[C@H](NC(=O)[C@H](CO)NC(=O)[C@H](Cc1ccc(O)cc1)NC(=O)[C@H](CC(=O)O)NC(=O)[C@H](CO)NC(=O)[C@@H](NC(=O)[C@H](Cc1ccccc1)NC(=O)[C@@H](NC(=O)CCCCCCCCCCCCC(=O)O)[C@@H](C)O)[C@@H](C)CC)C(=O)N[C@@H](C)C(=O)N[C@@H](CCSC)C(=O)N[C@@H](CC(=O)O)C(=O)N[C@@H](CCCCN)C(=O)N[C@H](C(=O)N[C@@H](Cc1c[nH]cn1)C(=O)N[C@@H](CCC(N)=O)C(=O)N[C@@H](CCC(N)=O)C(=O)N[C@@H](CC(=O)O)C(=O)N[C@@H](Cc1ccccc1)C(=O)N[C@H](C(=O)N[C@@H](CC(N)=O)C(=O)N[C@@H](Cc1c[nH]c2ccccc12)C(=O)N[C@@H](CC(C)C)C(=O)N[C@@H](CC(C)C)C(=O)N[C@@H](C)C(=O)N[C@@H](CCC(N)=O)C(=O)N[C@@H](CCCCN)C(N)=O)C(C)C)[C@@H](C)CC` [AT136, [hGIP(5-30)NH2—C14diacid/5]] returned an Emax in data set [1] (COS-7 cells) of 20%. Also, the EC50 – broadly, the concentration giving half of the maximal effect – in data set [1] (setting [6]) stood at 8 nM. Besides, the “Ability to antagonize the GIP-mediated cAMP response (in words)” value in data set [2] is recorded as “high potent antagonists”. Also, in data set [3], the “Affinity compared to GIP(3-30)NH2 (in words)” value is given as “affinities in the same range as GIP(3-30)NH2”; the “Fold change HSA (2%)/Casein (0.1%)” value worked out at 15.7; the “Fold change in affinity, IC50 (plus HSA)/IC50 (minus HSA)” value was 15.7 fold. The IC50 in data set [3] (setting [4]) is 50.1 nM.
For the compound `CC[C@H](C)[C@H](NC(=O)[C@H](CO)NC(=O)[C@H](Cc1ccc(O)cc1)NC(=O)[C@H](CC(=O)O)NC(=O)[C@H](CO)NC(=O)[C@@H](NC(=O)[C@H](Cc1ccccc1)NC(=O)[C@@H](N)[C@@H](C)O)[C@@H](C)CC)C(=O)N[C@@H](C)C(=O)N[C@@H](CCSC)C(=O)N[C@@H](CC(=O)O)C(=O)N[C@@H](CCCCN)C(=O)N[C@H](C(=O)N[C@@H](Cc1c[nH]cn1)C(=O)N[C@@H](CCCCNC(=O)CCCCCCCCCCCCCCC(=O)O)C(=O)N[C@@H](CCC(N)=O)C(=O)N[C@@H](CC(=O)O)C(=O)N[C@@H](Cc1ccccc1)C(=O)N[C@H](C(=O)N[C@@H](CC(N)=O)C(=O)N[C@@H](Cc1c[nH]c2ccccc12)C(=O)N[C@@H](CC(C)C)C(=O)N[C@@H](CC(C)C)C(=O)N[C@@H](C)C(=O)N[C@@H](CCC(N)=O)C(=O)N[C@@H](CCCCN)C(N)=O)C(C)C)[C@@H](C)CC` [AT179, [hGIP(5-30)NH2[Q19K]-C16diacid/19]] (H-TFISDYSIAMDKIHK(C16 diacid)QDFVNWLLAQK-NH2; N-terminus assumed), the Emax in data set [1] (COS-7 cells) came to 32%. The EC50 in data set [1] (given as log EC50 (negative sign), read-out: cAMP agonism EC50 (log) (converted)) was 100 nM. Moreover, in data set [2], the “Fold change of IC50 versus GIP(5-30)NH2” value worked out at 2.1 and the IC50 was 89 nM. Also, in data set [3], the “Fold change HSA (2%)/Casein (0.1%)” value is 3.6 and the “Binding (+/−HSA) Fold” value amounted to 6.3. Moreover, in data set [3] (presence of 2% HSA), the Ki (usually a measure of affinity in units of concentration, obtained from inhibition or displacement) turned out to be 2380 nM.
Turning to `CC[C@H](C)[C@H](NC(=O)[C@H](CO)NC(=O)[C@H](Cc1ccc(O)cc1)NC(=O)[C@H](CC(=O)O)NC(=O)[C@H](CO)NC(=O)[C@@H](NC(=O)[C@H](Cc1ccccc1)NC(=O)[C@@H](N)[C@@H](C)O)[C@@H](C)CC)C(=O)N[C@@H](C)C(=O)N[C@@H](CCSC)C(=O)N[C@@H](CC(=O)O)C(=O)N[C@@H](CCCCN)C(=O)N[C@H](C(=O)N[C@@H](Cc1c[nH]cn1)C(=O)N[C@@H](CCC(N)=O)C(=O)N[C@@H](CCC(N)=O)C(=O)N[C@@H](CCCCNC(=O)CCCCCCCCCCCCCCC(=O)O)C(=O)N[C@@H](Cc1ccccc1)C(=O)N[C@H](C(=O)N[C@@H](CC(N)=O)C(=O)N[C@@H](Cc1c[nH]c2ccccc12)C(=O)N[C@@H](CC(C)C)C(=O)N[C@@H](CC(C)C)C(=O)N[C@@H](C)C(=O)N[C@@H](CCC(N)=O)C(=O)N[C@@H](CCCCN)C(N)=O)C(C)C)[C@@H](C)CC` [AT181, [hGIP(5-30)NH2[D21K]-C16diacid/21]] (H-TFISDYSIAMDKIHQQK(C16 diacid)FVNWLLAQK-NH2; N-terminus assumed), the Emax in data set [1] (COS-7 cells) was found to be 9%. The EC50 in data set [1] (setting [6]) stood at 2 nM. Further, in data set [2], the “Ability to antagonize the GIP-mediated cAMP response (in words)” value was “highest antagonistic potencies”, the “Fold change of IC50 versus GIP(5-30)NH2” value was determined as 0.5 and the IC50 was determined as 16 nM. For the same compound, in data set [3], the “Fold change HSA (2%)/Casein (0.1%)” value is listed as 5.2; the “Binding (+/−HSA) Fold” value is 3.6; the “Fold change in affinity, IC50 (plus HSA)/IC50 (minus HSA)” value was determined as 5.2 fold. In data set [3] (setting [5]), the IC50 turned out to be 48 nM.
Turning to `CC[C@H](C)[C@H](NC(=O)[C@H](CO)NC(=O)[C@H](Cc1ccc(O)cc1)NC(=O)[C@H](CC(=O)O)NC(=O)[C@H](CO)NC(=O)[C@@H](NC(=O)[C@H](Cc1ccccc1)NC(=O)[C@@H](N)[C@@H](C)O)[C@@H](C)CC)C(=O)N[C@@H](C)C(=O)N[C@@H](CCSC)C(=O)N[C@@H](CC(=O)O)C(=O)N[C@@H](CCCCN)C(=O)N[C@H](C(=O)N[C@@H](Cc1c[nH]cn1)C(=O)N[C@@H](CCC(N)=O)C(=O)N[C@@H](CCCCNC(=O)CCCCCCCCCCCCCCC(=O)O)C(=O)N[C@@H](CC(=O)O)C(=O)N[C@@H](Cc1ccccc1)C(=O)N[C@H](C(=O)N[C@@H](CC(N)=O)C(=O)N[C@@H](Cc1c[nH]c2ccccc12)C(=O)N[C@@H](CC(C)C)C(=O)N[C@@H](CC(C)C)C(=O)N[C@@H](C)C(=O)N[C@@H](CCC(N)=O)C(=O)N[C@@H](CCCCN)C(N)=O)C(C)C)[C@@H](C)CC` [AT180, [hGIP(5-30)NH2[Q20K]-C16diacid/20]] (H-TFISDYSIAMDKIHQK(C16 diacid)DFVNWLLAQK-NH2; N-terminus assumed), the Emax in data set [1] (COS-7 cells) was found to be 0%. In data set [2], the “Fold change of IC50 versus GIP(5-30)NH2” value was 1.7 and the IC50 came to 37 nM. In data set [3], the “Fold change HSA (2%)/Casein (0.1%)” value was 3.7 and the “Binding (+/−HSA) Fold” value stood at 6.4.
As for `CC[C@H](C)[C@H](NC(=O)[C@H](CO)NC(=O)[C@H](Cc1ccc(O)cc1)NC(=O)[C@H](CC(=O)O)NC(=O)[C@H](CO)NC(=O)[C@@H](NC(=O)[C@H](Cc1ccccc1)NC(=O)[C@@H](N)[C@@H](C)O)[C@@H](C)CC)C(=O)N[C@@H](C)C(=O)N[C@@H](CCSC)C(=O)N[C@@H](CC(=O)O)C(=O)N[C@@H](CCCCN)C(=O)N[C@H](C(=O)N[C@@H](Cc1c[nH]cn1)C(=O)N[C@@H](CCC(N)=O)C(=O)N[C@@H](CCC(N)=O)C(=O)N[C@@H](CC(=O)O)C(=O)N[C@@H](Cc1ccccc1)C(=O)N[C@H](C(=O)N[C@@H](CC(N)=O)C(=O)N[C@@H](Cc1c[nH]c2ccccc12)C(=O)N[C@@H](CCCCNC(=O)CCCCCCCCCCCCCCC(=O)O)C(=O)N[C@@H](CC(C)C)C(=O)N[C@@H](C)C(=O)N[C@@H](CCC(N)=O)C(=O)N[C@@H](CCCCN)C(N)=O)C(C)C)[C@@H](C)CC` [AT186, [hGIP(5-30)NH2[L26K]-C16diacid/26]] (H-TFISDYSIAMDKIHQQDFVNWK(C16 diacid)LAQK-NH2; N-terminus assumed), the Emax in data set [1] (COS-7 cells) stood at 0%. Besides, in data set [2], the “Fold change of IC50 versus GIP(5-30)NH2” value worked out at 2.6 and the IC50 turned out to be 79 nM. In addition, in data set [3], the “Fold change HSA (2%)/Casein (0.1%)” value is recorded as 3.8 and the “Binding (+/−HSA) Fold” value stood at 7.9. Further, in data set [3] (absence of HSA), the Ki came to 105 nM. In addition, the IC50 in data set [3] (heterologous competition binding, transiently transfected COS-7 cells expressing the human GIP receptor, log value of the nM column, read-out: Binding log (converted)) is 158 nM and 144 nM.
